Results taken from patent US9381204B2, “Pharmaceutical compositions containing phosphatidylserine and curcumin” (FIDIA FARMACEUTICI S.P.A., priority 2012, dated 2016).

What was measured:
[1] = system: murine microglia BV-2 cells; assay: NO release by LPS-activated BV-2 microglia (Griess test); type: cell-based; settings: 0.1 μg/ml LPS overnight; for effect on release of NO into the culture medium (FIG. 1): PS 10 and 30 μM, curcumin 2.5 and 5 μM
Description: PS (sodium salt), produced and purified according to EP1890706 (example 3), was resuspended in 2:1 chloroform/methanol, dried by evaporation and resuspended in PBS at the final concentration of 100 μM. 95% pure curcumin, prepared in DMSO at the final active ingredient concentration of 20 mM, was used for this experiment.
An in vitro glial activation model using the murine microglia BV-2 cell line was selected for this experiment:
50,000 cells/well were initially seeded in 96-well plates and cultured in DMEM containing 10% FCS, glutamine and antibiotics at 37° C. If activated with LPS (lipopolysaccharide, an endotoxin of Gram-negative bacterial, normally used as pro-inflammatory stimulus both in vitro and in vivo), these cells release NO into the culture medium; the experiment therefore involved stimulating them with 0.1 μg/ml LPS overnight in the presence or absence of PS (10 and 30 μM) or curcumin (2.5 and 5 μM) at different concentrations.
Finally, to evaluate the synergy between the two active constituents, the PS/curcumin combination was tested in the presence of LPS 0.1 μg/ml (as described above):
10 μM PS+2.5 μM curcumin, and
The final NO content in the medium was measured with the Griess test: briefly, aliquots of medium were mixed with equal volumes of Griess reagent (0.1% N(1-naphthyl)ethylenediamine dihydrochloride, 1% sulphanylamide and 0.4M HCl). After 15 minutes' reaction, the absorbance was measured at 570 nm.

[2] = system: microglia BV-2 cells; assay: IL-1β release from LPS-stimulated BV-2 cells (ELISA); type: cell-based, murine; settings: administered individually, 0.1 μg/ml LPS 16 hours; for inhibition of IL-1β release (FIG. 4): 1 μM or 5 μM; for inhibition of IL-1β release at the higher concentration (FIG. 4): 5 μM
Description: The experiment was conducted in two steps, and was designed to evaluate the effect on in vitro release of IL-1β from microglia BV-2 cells stimulated with LPS after administration of PS and curcumin. IL-1β is a cytokine strongly involved in the inflammatory processes underlying both osteoarticular disorders and neurodegeneration.
Murine microglial BV-2 cells were stimulated as described in Example 3 (0.1 μg/ml LPS for 16 hours) and then treated with PS and curcumin at the concentration of 1 μM or 5 μM. The IL-1β levels were determined by ELISA assay. The control (CTRL) was represented by cells stimulated with LPS but not treated.
At the second stage of the experiment the effects of the combination of the two substances were evaluated on the same parameter according to the same protocol.

[3] = system: neural progenitor cells (NPCs); assay: Neuronal differentiation (βIII tubulin) of NPCs exposed to medium of LPS-activated microglia; type: cell-based, mice; settings: alone, 1 and 5 μM; NPCs with medium of LPS-activated microglia, 6 days
Description: Cultures of stem cells/neural progenitor cells (NPCs) obtained from the subventricular zone of adult mice were used. The NPCs were cultured under conditions of differentiation by mechanical dissociation of the neurospheres and seeding of the individual cells on plates coated with poly-ornithine and laminin in a culture medium only containing factor bFGF, according to state-of-the-art techniques.
The NPC cultures thus obtained were divided into aliquots, each of which was treated differently, as follows:
b) treatment a) and PS and curcumin administered separately at different concentrations;
c) treatment a) and PS/curcumin combined at different relative concentrations.
The control was represented by untreated NPC cells.
Neuronal differentiation was evaluated after 6 days, by immunocytochemical analysis with antibodies directed against the specific marker βIII tubulin, extrapolating the % concentration of protein present in the medium.

| Molecule | inhibition at 5 µM ([1]; Mus musculus, single treatment of 5 μM curcumin, read-out: inhibition of NO release into the culture medium) [%] | effect on release of NO into the culture medium (FIG. 1) [1] | inhibition of IL-1β release (FIG. 4) [2] | inhibition of IL-1β release at the higher concentration (FIG. 4) [2] | percentage of cells positive to βIII tubulin (FIG. 6) [3] | inhibition of NO release into the culture medium ([1]; single treatment of 10 μM PS) [%] |
| --- | --- | --- | --- | --- | --- | --- |
| COc1cc(C=CC(=O)CC(=O)C=Cc2ccc(O)c(OC)c2)ccc1O [curcumin, 1,7-bis[4-hydroxy-3-methoxyphenyl]-1,6-heptadiene-3,5-dione] | < 20 | inhibit the release of NO into the medium in a dose-dependent manner | neither PS nor curcumin, administered individually, significantly inhibits the release of IL-1β | limited effect | did not differ significantly from that observed in the presence of LPS alone | – |
| phosphatidylserine [PS] | – | inhibit the release of NO into the medium in a dose-dependent manner | neither PS nor curcumin, administered individually, significantly inhibits the release of IL-1β | limited effect | did not differ significantly from that observed in the presence of LPS alone | ≤ 10 |
